The values below come from ChEMBL document CHEMBL1148116, “Thorectandrols C, D, and E, new sesterterpenes from the marine sponge Thorectandra sp” (J Nat Prod, 2002).

What all share (type): functional, cell-based
Experiment [1] has as its system SNB-19. Nature of the experiment: Cytotoxicity against human SNB19 cells.
Experiment [2] concerns COLO 205. Nature of the experiment: Cytotoxicity against human COLO205 cells.
For experiment [3], the system named is KM12. Nature of the experiment: Cytotoxicity against human KM12 cells.
The test system of experiment [4] is MOLT-4. Nature of the experiment: Cytotoxicity against human MOLT4 cells.
Experiment [5] deals with NCI-H460. Put plainly: Cytotoxicity against human H460 cells.
Experiment [6] relates to A549. Nature of the experiment: Cytotoxicity against human A549 cells.
In experiment [7] the test system is LOX IMVI. Nature of the experiment: Cytotoxicity against human LOXIMVI cells.
Experiment [8] relates to Malme-3M. Nature of the experiment: Cytotoxicity against human MALME-3M cells.
Experiment [9] relates to OVCAR-3. Put plainly: Cytotoxicity against human OVCAR-3 cells.
Experiment [10] relates to IGROV-1. Nature of the experiment: Cytotoxicity against human IGROV1 cells.
Experiment [11] is described as follows: Cytotoxicity against human 786-O cells. The settings on record: 786-0.
Experiment [12] relates to MCF7. Put plainly: Cytotoxicity against human MCF7 cells.
Experiment [13] concerns MCF7. Nature of the experiment: Cytotoxicity against human MCF7 cells at 100 ug/mL.
For experiment [14], the system named is SNB-19. Nature of the experiment: Cytotoxicity against human SNB19 cells at 100 ug/mL.
Experiment [15] deals with COLO 205. Nature of the experiment: Cytotoxicity against human COLO205 cells at 100 ug/mL.
For experiment [16], the system named is KM12. Nature of the experiment: Cytotoxicity against human KM12 cells at 100 ug/mL.
Experiment [17] deals with MOLT-4. Put plainly: Cytotoxicity against human MOLT4 cells at 100 ug/mL.
In experiment [18] the test system is NCI-H460. Nature of the experiment: Cytotoxicity against human H460 cells at 100 ug/mL.
For experiment [19], the system named is A549. Put plainly: Cytotoxicity against human A549 cells at 100 ug/mL.
The subject of experiment [20] is LOX IMVI. Put plainly: Cytotoxicity against human LOXIMVI cells at 100 ug/mL.
For experiment [21], the system named is Malme-3M. Put plainly: Cytotoxicity against human MALME-3M cells at 100 ug/mL.
In experiment [22] the test system is OVCAR-3. Put plainly: Cytotoxicity against human OVCAR-3 cells at 100 ug/mL.
Experiment [23] has as its system IGROV-1. Put plainly: Cytotoxicity against human IGROV1 cells at 100 ug/mL.
A further experiment deals with 786-0. Put plainly: Cytotoxicity against human 786-O cells at 100 ug/mL.
Setting [24] is: Homo sapiens, MCF7, read-out: IC50.

Converted amounts (≈) assume the structure as drawn. The source made the active and inactive calls. The rule behind the calls is not given here.

In the case of `C=C1CCC[C@H]2[C@@](CC/C(C)=C/C[C@H]3OC(=O)CC3CO)(COC(C)=O)[C@@H](C)CC[C@]12C` (stereo not given in full) [THORECTANDROL B], the IC50 – broadly, the concentration that gives 50% inhibition – was 35 µg/mL (≈ 78.4 µM) in the experiment with SNB-19 [1]; 23.6 µg/mL (≈ 52.8 µM) in the experiment on COLO 205 [2]; 94 µg/mL (≈ 210 µM) with KM12 [3]; 19 µg/mL (≈ 42.5 µM) with MOLT-4 [4]; 96 µg/mL (≈ 215 µM) in the experiment with NCI-H460 [5]; 35 µg/mL (≈ 78.4 µM) with A549 [6]. Moreover, the IC50 was 100 µg/mL (≈ 224 µM) with LOX IMVI [7]; 30 µg/mL (≈ 67.2 µM) in the experiment on Malme-3M [8]; 70 µg/mL (≈ 157 µM) with OVCAR-3 [9]; more than 100 µg/mL with IGROV-1 [10]; 35 µg/mL (≈ 78.4 µM) in [11]; 30 µg/mL (≈ 67.2 µM) in the experiment on MCF7 [12] (setting [24]).

For `C=C1CCC[C@@H]2[C@@](C)(CC/C(C)=C/C[C@@H](O)C3=CC(=O)OC3O)[C@@H](C)CC[C@@]12C` (stereo not given in full) [PALAUOLOL], the IC50 is 2.1 µg/mL (≈ 5.22 µM) in the experiment with SNB-19 [1]; 1.1 µg/mL (≈ 2.73 µM) with COLO 205 [2]; 1.8 µg/mL (≈ 4.47 µM) with KM12 [3]; 0.6 µg/mL (≈ 1.49 µM) in the experiment with MOLT-4 [4]; 1.3 µg/mL (≈ 3.23 µM) in the experiment on NCI-H460 [5]; more than 100 µg/mL in the experiment on A549 [6]. Further, the half-maximal inhibitory concentration (IC50) came out at 2.4 µg/mL (≈ 5.96 µM) in the experiment with LOX IMVI [7]; 0.5 µg/mL (≈ 1.24 µM) in the experiment on Malme-3M [8]; 2.2 µg/mL (≈ 5.46 µM) in the experiment with OVCAR-3 [9]; 1.5 µg/mL (≈ 3.73 µM) in the experiment with IGROV-1 [10]; 1.4 µg/mL (≈ 3.48 µM) in experiment [11]; 7 µg/mL (≈ 17.4 µM) in the experiment with MCF7 [12] (setting [24]).

Take `C=C1CCC[C@H]2[C@](C)(CC/C(C)=C/C[C@H]3OC(=O)C=C3CO)[C@@H](C)CC[C@]12C` [THORECTANDROL A]: the 50% inhibitory concentration (IC50) in the experiment with SNB-19 [1] turned out to be 40 µg/mL (≈ 103 µM); in the experiment on COLO 205 [2], 37 µg/mL (≈ 95.7 µM); in the experiment on KM12 [3], 40 µg/mL (≈ 103 µM); in the experiment with MOLT-4 [4], 32 µg/mL (≈ 82.8 µM); in the experiment with NCI-H460 [5], 35 µg/mL (≈ 90.5 µM); with A549 [6], 35 µg/mL (≈ 90.5 µM). The IC50 with LOX IMVI [7] is 35 µg/mL (≈ 90.5 µM); in the experiment on Malme-3M [8] it was 40 µg/mL (≈ 103 µM); in the experiment with OVCAR-3 [9] it was 35 µg/mL (≈ 90.5 µM); in the experiment with IGROV-1 [10], 31 µg/mL (≈ 80.2 µM); in experiment [11], 30 µg/mL (≈ 77.6 µM); in the experiment with MCF7 [12] (setting [24]), 40 µg/mL (≈ 103 µM).

In the case of `C=C1CCC[C@H]2[C@](C)(CC/C(C)=C/C=C/C3=CC(=O)OC3O)[C@@H](C)CC[C@]12C` (stereo not given in full) [PALAUOLIDE], the 50% inhibitory concentration (IC50) in the experiment on SNB-19 [1] turned out to be 52.1 µg/mL (≈ 135 µM); in the experiment with COLO 205 [2], 23.6 µg/mL (≈ 61.4 µM); in the experiment on KM12 [3], 14.4 µg/mL (≈ 37.4 µM); in the experiment with MOLT-4 [4] it was 43.5 µg/mL (≈ 113 µM); in the experiment on NCI-H460 [5], 10.1 µg/mL (≈ 26.3 µM); in the experiment with A549 [6] it was 30 µg/mL (≈ 78 µM). For the same molecule, the half-inhibitory concentration (IC50) in the experiment with LOX IMVI [7] was 51.2 µg/mL (≈ 133 µM); with Malme-3M [8] it was 37 µg/mL (≈ 96.2 µM); with OVCAR-3 [9], 30 µg/mL (≈ 78 µM); with IGROV-1 [10] it was 7.7 µg/mL (≈ 20 µM); in [11], 53 µg/mL (≈ 138 µM); in the experiment with MCF7 [12] (setting [24]), more than 100 µg/mL.

For the molecule `C=C1CCC[C@H]2[C@](C)(CC/C(C)=C/C[C@@H](O)C3=CC(=O)OC3)[C@@H](C)[C@H](OC(C)=O)C[C@]12C` [THORECTANDROL C], the IC50 in the experiment with A549 [6] was 30 µg/mL (≈ 67.5 µM); in the experiment on Malme-3M [8], 30 µg/mL (≈ 67.5 µM); in [11] it was 30 µg/mL (≈ 67.5 µM); with MCF7 [12] (mcf7) it was “Not Active”. The outcome with LOX IMVI [7] and in the experiment with OVCAR-3 [9] was inactive.

Turning to `C=C1CCC[C@H]2[C@](C)(CC/C(C)=C/C[C@@H](O)C3=CC(=O)OC3)[C@@H](C)[C@H](O)C[C@]12C`, the outcome in the experiment on MCF7 [13], in the experiment on SNB-19 [14], with COLO 205 [15], in the experiment on KM12 [16], in the experiment with MOLT-4 [17] and in the experiment with NCI-H460 [18] was inactive. In addition, the result with A549 [19], in the experiment with LOX IMVI [20], with Malme-3M [21], in the experiment with OVCAR-3 [22], with IGROV-1 [23] and in the experiment with 786-0 was inactive.

Take `CC(C)=CC1C/C(=C\CC/C(C)=C/CC/C(C)=C/CCC2=CC(=O)OC2)C(=O)O1` (stereo not given): the result in the experiment on MCF7 [13], in the experiment with SNB-19 [14], with COLO 205 [15], with KM12 [16], with MOLT-4 [17] and in the experiment with NCI-H460 [18] was inactive. Further, the result in the experiment with A549 [19], in the experiment with LOX IMVI [20], in the experiment with Malme-3M [21], with OVCAR-3 [22], in the experiment with IGROV-1 [23] and in the experiment on 786-0 was inactive.

On to `CC(C)=CC1C/C(=C/CC/C(C)=C/CC/C(C)=C/C[C@@H](O)C2=CC(=O)OC2)C(=O)O1` (stereo not given in full), for which the outcome in the experiment with MCF7 [13], with SNB-19 [14], with COLO 205 [15], in the experiment with KM12 [16], with MOLT-4 [17] and in the experiment with NCI-H460 [18] was inactive. The result with A549 [19], in the experiment on LOX IMVI [20], with Malme-3M [21], in the experiment with OVCAR-3 [22], with IGROV-1 [23] and in the experiment on 786-0 was inactive.
